Measurements from patent publication US6323203A, “Composition and method for treating diabetes” (Beyer; Camille F., priority 2000, dated 2001).

Legend:
[1] = Single-blind, three-phase crossover study of single oral doses: blood analyses of metabolic, hormonal and electrolyte parameters in 8 normal male subjects; type: in vivo, human; details: for Free fatty acids, mean / Angiotensin I, mean / Renin, mean / C-peptide, mean / Potassium, mean / Uric acid, mean / Aldosterone, mean / Insulin, mean / Urea, mean / VLDL Cholesterol, mean / Norepinephrine, mean / HDL Cholesterol, mean / Glucose, mean / Triglycerides, mean / LDL Cholesterol, mean / Total cholesterol, mean / Fibrinogen, mean: 8 normal subjects; for Free fatty acids, mean: 0 h: PZG 0.47, PZA 0.51; for Angiotensin I, mean: 0 h: PZG 0.84, PZA 0.66; for Renin, mean: 0 h: PZG 1.0, PZA 1.5; for C-peptide, mean: 0 h: PZG 1.1, PZA 1.2; for Potassium, mean: 0 h: PZG 4.2, PZA 4.0; for Uric acid, mean: 0 h: PZG 6.0, PZA 5.6; for Aldosterone, mean: 0 h: PZG 8.6, PZA 13.6; for Insulin, mean: 0 h: PZG 8.8, PZA 5.4; for Urea, mean: 0 h: PZG 17, PZA 17; for VLDL Cholesterol, mean: 0 h: PZG 20, PZA 17; for Norepinephrine, mean: 0 h: PZG 37, PZA 75; for HDL Cholesterol, mean: 0 h: PZG 41, PZA 46; for Glucose, mean: 0 h: PZG 87, PZA 84; for Triglycerides, mean: 0 h: PZG 101, PZA 86; for LDL Cholesterol, mean: 0 h: PZG 107, PZA 104; for Total cholesterol, mean: 0 h: PZG 168, PZA 167; for Fibrinogen, mean: 0 h: PZG 266, PZA 293
Experimental: A three-phase study, where single oral doses of placebo, followed in one week by 900 mg of pyrazinoylguanidine (PZG), followed in three weeks by 300 mg of pyrazinoic acid (PZA), involving normal male subjects, was carried out to compare and contrast metabolic effects of single doses of PZG and PZA. A purpose of the study was to determine whether the metalbolic effects observed after 3 and also 21 days of PZG administration in patients with renal disease or with diabetes also occurred after a single oral dose. […]
(§1) Eight male nonsmoking subjects aged 24-32 participated. They were normal by history, physical exam and routine laboratory analysis of blood and urine.
(§2) This was a single-blind, three-phase crossover study beginning after a 10-hour fast at 8 a.m., designated time 0 (control), when the first venipuncture occurred. In phase I, three capsules of lactose were given orally, followed by venipunctures 2 and 4 h later. In phase II, 1 week later, after a control blood specimen drawn at 8 a.m., PZG (900 mg) was given orally and blood specimens taken 2 and 4 h thereafter. In phase III, 3 weeks later, after a control blood specimen drawn at 8 a.m., PZA (300 mg) was given orally and blood specimens taken 2 and 4 h later.
(§3) Each phase consisted of taking three capsules, each containing 300 mg. In phase I, all three capsules were of lactose; in phase II, all three were PZG; and in phase III, two capsules were lactose and one PZA. All capsules appeared indistinguishable and were given to each subject who swallowed them with water in the presence of an investigator.
(§4) Once obtained, blood specimens were immediately spun. Refrigerated serum or plasma was analyzed within 24 h for glucose, insulin, electrolytes, blood urea nitrogen, creatinine, liver function tests, triglycerides, total cholesterol, high-density lipoprotein (HDL) cholesterol, low-density lipoprotein (LDL) cholesterol, very-low-density lipoprotein (VLDL) cholesterol, free fatty acids, and fibrinogen.
Repeated measures of analysis of variance were used to compare each subject's placebo, PZG and PZA phase. Two-tailed Student t-tests were performed between groups. All results are reported as means ±SD. Statistical significance was considered when p<0.05. The results are illustrated in Tables 1-4.

[2] = Serum concentration of PZG or PZA after single oral dose in the crossover study; type: in vivo; details: human, 900 mg, 8 normal subjects
Experimental: as §1, §2, §3, §4

[3] = tested on: cutaneous vasomotor reaction of blush area; assay: Cutaneous vasomotor response (and tolerability) after a single oral dose in 8 male volunteers; type: in vivo, human; details: single oral dose, 900 mg PZG
Experimental: as §1, §2
Comparisons of mean serum or plasma concentrations ±SD during placebo, PZG and PZA phases are presented in Table 1 for glucose, insulin, C-peptide, free fatty acids and norepinephrine. Comparisons of mean serum or plasma concentrations ±SD during these three phases are presented in Table 2 for triglycerides, VLDL, LDL, HDL, total cholesterol, fibrinogen and serum PZG and PZA concentrations. Note the close agreement of serum PZG and PZA concentrations at 2 h and also at 4 h after their administration. Table 3 compares mean serum or plasma concentrations ±SD of renin, angiotensin I, adlosterone, potassium, urea and uric acid during the three phases of the study. […] In an earlier pilot experiment to determine serum PZA concentrations following different PZA doses, a first subject ([…]) after a single oral dose of 300 mg PZA developed unexpectedly a typical cutaneous vasomotor reaction of their blush area which included flushed, warm skin of face, neck and shoulders with a mild rash for about 90 min. […] They described the reaction variously as warm redness or flushed head and neck, rash and itching (Table 4). These reactions, which were graded from 6 (most severe) to 0 (not observed), lasted from 30 min in 3 subjects to 4 h in 1 subject. […] No significant correlation occurred between score of reaction (effect+duration) and PZA peak blood concentration among the subjects (r=0.281) (Table 4).
^1 Score = warm + redness (flush) + rash + itching + duration. Duration
as 0.5 h, 1, 2, 4 h (reaction and duration as noted).

[4] = 2 h after single oral dose (PZG 900 mg, PZA 300 mg)
[5] = 4 h after single oral dose (PZG 900 mg, PZA 300 mg)

For `NC(N)=NC(=O)c1cnccn1` [PZG, pyrazinoylguanidine], the “Free fatty acids, mean” value [1, 4] was 0.20 meq/l, the “Angiotensin I, mean” value [1, 4] was 0.86 ng/ml per h and the “Renin, mean” value [1, 4] was 1.2 ng/ml per h. The “C-peptide, mean” value [1, 4] was 0.9 ng/mL, the “Potassium, mean” value [1, 4] was 4.5 meg/l and the “Uric acid, mean” value [1, 4] was 6.0 mg/dL. For the same compound, the “Aldosterone, mean” value [1, 4] was 10.0 ng/dL, the “Insulin, mean” value [1, 4] was 6.2 μlU/ml and the “Urea, mean” value [1, 4] was 17 mg/dL. The “VLDL Cholesterol, mean” value [1, 4] was 18 mg/dL, the “Norepinephrine, mean” value [1, 4] was 53 pg/mL and the “HDL Cholesterol, mean” value [1, 4] was 42 mg/dL. The “Glucose, mean” value [1, 4] was 84 mg/dL, the “Triglycerides, mean” value [1, 4] was 91 mg/dL and the “LDL Cholesterol, mean” value [1, 4] was 107 mg/dL. For the same compound, the “Total cholesterol, mean” value [1, 4] was 167 mg/dL, the “Fibrinogen, mean” value [1, 4] was 273 mg/dL and the “Free fatty acids, mean” value [1, 5] was 0.19 meq/l. The “Angiotensin I, mean” value [1, 5] was 1.0 ng/ml per h, the “Renin, mean” value [1, 5] was 1.8 ng/ml per h and the “C-peptide, mean” value [1, 5] was 0.6 ng/mL. The “Potassium, mean” value [1, 5] was 4.3 meg/l, the “Uric acid, mean” value [1, 5] was 6.2 mg/dL and the “Aldosterone, mean” value [1, 5] was 9.5 ng/dL. The “Insulin, mean” value [1, 5] was 3.4 μlU/ml, the “Urea, mean” value [1, 5] was 16 mg/dL and the “VLDL Cholesterol, mean” value [1, 5] was 16 mg/dL. For the same compound, the “Norepinephrine, mean” value [1, 5] was 113 pg/mL, the “HDL Cholesterol, mean” value [1, 5] was 42 mg/dL and the “Glucose, mean” value [1, 5] was 80 mg/dL. For the same compound, the “Triglycerides, mean” value [1, 5] was 79 mg/dL, the “LDL Cholesterol, mean” value [1, 5] was 113 mg/dL and the “Total cholesterol, mean” value [1, 5] was 171 mg/dL. The “Fibrinogen, mean” value [1, 5] was 273 mg/dL, the “effect on potassium blood concentrations” value ([1]; single oral dose, within 4 h) was “not changed” and the concentration at 2 h ([2]; 2 h after single oral dose (PZG 900 mg, PZA 300 mg), read-out: Serum concentration of PZG or PZA, mean) was 5100 ng/mL. The concentration at 4 h [2, 5] was 3000 ng/mL, the adverse reactions [3] was “no adverse reaction” and the tolerability [3] was “well tolerated”.
